Literature values as cited in patent US9737548B2, “Pharmaceutical formulations and uses thereof in the treatment of female sexual dysfunction” (EB IP LYBRIDO B.V., priority 2005, dated 2017).

Key:
[1] = serum concentration
[2] = short-lasting peak formulation

SMILES	Tmax [1]	time after administration at which peak serum level of testosterone is obtained [2]	time after which testosterone serum level is back to the level before administration [2]
COc1cc2nc(N3CCN(C(=O)c4ccco4)CC3)nc(N)c2cc1OC [prazosin]	1 to 2 h	–	–
C[C@]12CC[C@H]3[C@@H](CCC4=CC(=O)CC[C@@]43C)[C@@H]1CC[C@@H]2O [testosterone, 17-β-hydroxyandrost-4-en-3-one]	–	1 to 20 min	approximately 120 minutes
